Experimental data reported in patent publication US20250268873A1, “COMBINATION OF DUAL ATM AND DNA-PK INHIBITORS AND IMMUNOTHERAPEUTIC AGENTS FOR USE IN CANCER THERAPY” (XRAD THERAPEUTICS, INC., priority 2021, published 2025).

Legend:
hERG channel = hERG channel (Homo sapiens (Human), UniProt Q12809); experiment: In-Vitro hERG Inhibition Assay (manual patch clamp); type: cell-based; settings: hERG-T-REx HEK 293 cells
Procedure: The hERG-T-REx™ HEK 293 cells (Invitrogen, K1236) were generated by transfecting the hERG coding sequence in the Tet-regulated expression vector pT-Rex-DEST30 into cells expressing the Tet-repressor (T-Rex™ HEK293), thereby producing cells that can be induced to express high level of hERG channels. The cells were cultured in a medium containing of 85% DMEM, 10% dialyzed FBS, 0.1 mM NEAA, 25 mM HEPES, 100 U/mL Penicillin-Streptomycin, 5 μg/mL Blasticidin, and 400 μg/mL Geneticin. The cells were split using TrypLE™ Express (Gibco, 12604) about three times a week and maintained between ˜40% to ˜80% confluence. Before the assay, the cells were induced with doxycycline (Sigma, D9891) at 1 μg/mL for 48 hours. On the experiment day, the induced cells were resuspended and plated onto the coverslips at 5×10^5 cells/per 6 cm cell culture dish prior to use. The hERG channel-mediated current was acquired by manual patch clamp recording systems equipped with amplifiers (HEKA, EPC10 and Molecular Devices, multiclamp 700B) and the inverted phase contrast microscope (Olympus, IX51/71/73). Glass pipettes were prepared by micropipette puller (Sutter, P97 and Narishige, PC-10) and qualified by the pipette resistance in the range of 2-4 MOhms. […] The whole-cell configuration was maintained with access resistance continuously monitored (<15 MOhms). […]

FADU tumors = experiment: In vivo tumor growth delay study, FADU subcutaneous human xenograft mouse model
Procedure: (§1) Female NCr nu/nu mice (Crl:NU(NCr)-Foxn1nu, Strain 490) were obtained from Charles River at 5-6 weeks of age.
(§2) FADU or MDA-MB-231 cells were harvested during log phase growth for in vivo implantation. The resuspended cells were washed three times in phosphate buffered saline (PBS) before preparing the working dilution in PBS. FADU cells were diluted to 1×10^7 cells/mL and MDA-MB-231 cells were diluted to 5×10^7 cells/mL. Each mouse was injected subcutaneously in the right flank with 100 μL of the cellular suspension. Tumor growth was monitored until the tumors reached a target volume of at least 100 mm^3, at which point mice were randomly stratified into four treatment groups.
(§3) Following implantation of the tumor cell lines, mice were monitored once weekly for tumor development. Upon detection, tumors were measured in two dimensions using digital calipers. Tumors were treated after reaching at least 100 mm^3 and were measured two to three times weekly following enrollment in one of the treatment groups. The study endpoint was defined as tumor quintupling from the volume at time of treatment.
(§4) The vehicle used in this study was 0.5% (Hydroxypropyl)methyl cellulose (HPMC) and 0.2% Tween80 dissolved in deionized water. The pH of the vehicle was adjusted to 7.0-8.0 and the vehicle was stored at 4° C. On each day of in vivo treatment an appropriate mass of test compound was added to the vehicle at room temperature. The mixture was vortexed as necessary to generate a final concentration of 1.6 mg/mL.
(§5) In vivo tumor growth delay study was performed as follows. Following implantation of the tumor cell lines, mice were monitored once weekly for tumor development. Upon development of a tumor measuring at least 100 mm^3, tumor-bearing mice were stratified to one of 4 groups, utilizing 5 mice per group. Tumor volumes were between 100 and 500 mm^3. Vehicle or compound 569 (10 mg/kg) were administered by oral gavage once daily for three consecutive days (qd×3), alone or in combination with focal radiation. The delivered volume of vehicle or compound 569 was adjusted based on body weight of the individual animals. […]
(§6) Prism (GraphPad) was used for graphical presentations. […] In order to adjust for the differing tumor sizes at the start of treatment, the relative tumor volume was calculated by dividing the tumor volume at each time point by the volume at baseline. […] When an animal exited the study due to tumor quintupling, the final tumor volume recorded for the animal was included with the data used to calculate the median volume at subsequent time points. […] Differences in quintupling-free survival between the four treatment groups were evaluated with a log-rank test. […]

MDA-MB-231 tumors = experiment: In vivo tumor growth delay study, MDA-MB-231 subcutaneous human xenograft mouse model
Procedure: as §1, §2, §3, §4, §5, §6

[1] = Group 4: compound 569 10 mg/kg 45 min prior to 3 Gy focal radiation, qd×3
[2] = Group 4: compound 569 + 3 Gy qd×3, P<0.01, logrank

Sequence of hERG channel (Q12809 whole entry): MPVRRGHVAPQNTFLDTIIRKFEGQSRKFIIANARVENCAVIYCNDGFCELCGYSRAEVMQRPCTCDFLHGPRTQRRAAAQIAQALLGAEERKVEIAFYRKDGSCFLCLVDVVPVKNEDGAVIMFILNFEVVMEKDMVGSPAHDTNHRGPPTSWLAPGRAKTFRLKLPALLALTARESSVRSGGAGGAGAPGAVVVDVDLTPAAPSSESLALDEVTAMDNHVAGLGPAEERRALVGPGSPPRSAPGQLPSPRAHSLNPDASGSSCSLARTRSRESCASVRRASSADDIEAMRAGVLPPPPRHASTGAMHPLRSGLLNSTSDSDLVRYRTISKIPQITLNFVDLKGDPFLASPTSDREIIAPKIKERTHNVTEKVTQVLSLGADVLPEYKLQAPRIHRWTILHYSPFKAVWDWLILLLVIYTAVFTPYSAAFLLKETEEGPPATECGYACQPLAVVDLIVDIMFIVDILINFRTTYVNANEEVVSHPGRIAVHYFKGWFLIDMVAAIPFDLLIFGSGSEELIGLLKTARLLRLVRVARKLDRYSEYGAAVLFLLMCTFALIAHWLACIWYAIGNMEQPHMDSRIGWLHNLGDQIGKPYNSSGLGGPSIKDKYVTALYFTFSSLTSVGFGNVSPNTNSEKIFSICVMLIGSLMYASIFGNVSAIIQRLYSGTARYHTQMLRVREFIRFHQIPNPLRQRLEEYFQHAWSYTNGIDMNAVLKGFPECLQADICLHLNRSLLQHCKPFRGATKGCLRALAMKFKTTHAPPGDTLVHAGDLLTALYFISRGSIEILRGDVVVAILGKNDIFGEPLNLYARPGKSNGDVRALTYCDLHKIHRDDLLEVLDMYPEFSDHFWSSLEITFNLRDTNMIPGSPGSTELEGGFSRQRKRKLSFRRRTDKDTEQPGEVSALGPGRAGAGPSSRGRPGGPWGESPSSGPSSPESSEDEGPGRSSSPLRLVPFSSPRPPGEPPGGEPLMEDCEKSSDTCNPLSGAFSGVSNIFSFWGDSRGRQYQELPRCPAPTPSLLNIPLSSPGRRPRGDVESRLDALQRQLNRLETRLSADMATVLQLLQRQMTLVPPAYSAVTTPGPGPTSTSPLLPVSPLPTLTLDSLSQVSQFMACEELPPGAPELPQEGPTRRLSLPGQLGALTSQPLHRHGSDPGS

CC(C)NCCOc1ncc(-c2cc3c4c(cnc3cc2F)N(C)C(=O)C42CCC2)cc1NS(C)(=O)=O [Compound 569, N-(5-(7′-Fluoro-3′-methyl-2′-oxo-2′,3′-dihydrospiro[cyclobutane-1,1′-pyrrolo[2,3-c]quinolin]-8′-yl)-2-(2-(isopropylamino)ethoxy)pyridin-3-yl)methanesulfonamide]
IC50 (hERG channel): > 30 µM
median time to endpoint (tumor quintupling) (FADU tumors; Group 2: Compound 569 10 mg/kg po qd×3 alone): 14 days
tumor growth curves and quintupling-free survival (FADU tumors; Group 2: Compound 569 10 mg/kg qd×3 alone vs vehicle (Group 1)): nearly identical to those for Group 1
median time to endpoint (tumor quintupling) (FADU tumors; [1]): 42 days
overall survival (quintupling-free) (FADU tumors; [2]): significantly improved compared to Group 1, Group 2, and Group 3
median time to endpoint (tumor quintupling) (MDA-MB-231 tumors; Group 2: compound 569 10 mg/kg po qd×3 alone): 17 days
tumor growth curves and quintupling-free survival (MDA-MB-231 tumors; Group 2: compound 569 10 mg/kg qd×3 alone vs vehicle (Group 1)): nearly identical to those for Group 1
median time to endpoint (tumor quintupling) (MDA-MB-231 tumors; [1]): 43 days
overall survival (quintupling-free) (MDA-MB-231 tumors; [2]): significantly improved compared to Group 1, Group 2, and Group 3
